From US20090181963A1, “3H-[1,2,3]TRIAZOLO[4,5-D]PYRIMIDINE COMPOUNDS, THEIR USE AS mTOR KINASE AND PI3 KINASE INHIBITORS, AND THEIR [sequence]” (Wyeth, priority 2008, published 2009)

Assays:
PI3 Kinase γ = PI3 Kinase γ (Homo sapiens, UniProt P48736); assay: Fluorescence polarization assay for PI3K (PI3 Kinase γ); assay type: biochemical; conditions: diC8-PI(4,5)P2 substrate, 25 μM ATP, one hour at 25° C.
PI3 Kinase α = PI3 Kinase α (Homo sapiens, UniProt P42336); assay: Fluorescence polarization assay for PI3K (PI3 Kinase α); assay type: biochemical; conditions: diC8-PI(4,5)P2 substrate, 25 μM ATP, one hour at 25° C.
PI3 Kinase α, sequence (P42336 whole entry): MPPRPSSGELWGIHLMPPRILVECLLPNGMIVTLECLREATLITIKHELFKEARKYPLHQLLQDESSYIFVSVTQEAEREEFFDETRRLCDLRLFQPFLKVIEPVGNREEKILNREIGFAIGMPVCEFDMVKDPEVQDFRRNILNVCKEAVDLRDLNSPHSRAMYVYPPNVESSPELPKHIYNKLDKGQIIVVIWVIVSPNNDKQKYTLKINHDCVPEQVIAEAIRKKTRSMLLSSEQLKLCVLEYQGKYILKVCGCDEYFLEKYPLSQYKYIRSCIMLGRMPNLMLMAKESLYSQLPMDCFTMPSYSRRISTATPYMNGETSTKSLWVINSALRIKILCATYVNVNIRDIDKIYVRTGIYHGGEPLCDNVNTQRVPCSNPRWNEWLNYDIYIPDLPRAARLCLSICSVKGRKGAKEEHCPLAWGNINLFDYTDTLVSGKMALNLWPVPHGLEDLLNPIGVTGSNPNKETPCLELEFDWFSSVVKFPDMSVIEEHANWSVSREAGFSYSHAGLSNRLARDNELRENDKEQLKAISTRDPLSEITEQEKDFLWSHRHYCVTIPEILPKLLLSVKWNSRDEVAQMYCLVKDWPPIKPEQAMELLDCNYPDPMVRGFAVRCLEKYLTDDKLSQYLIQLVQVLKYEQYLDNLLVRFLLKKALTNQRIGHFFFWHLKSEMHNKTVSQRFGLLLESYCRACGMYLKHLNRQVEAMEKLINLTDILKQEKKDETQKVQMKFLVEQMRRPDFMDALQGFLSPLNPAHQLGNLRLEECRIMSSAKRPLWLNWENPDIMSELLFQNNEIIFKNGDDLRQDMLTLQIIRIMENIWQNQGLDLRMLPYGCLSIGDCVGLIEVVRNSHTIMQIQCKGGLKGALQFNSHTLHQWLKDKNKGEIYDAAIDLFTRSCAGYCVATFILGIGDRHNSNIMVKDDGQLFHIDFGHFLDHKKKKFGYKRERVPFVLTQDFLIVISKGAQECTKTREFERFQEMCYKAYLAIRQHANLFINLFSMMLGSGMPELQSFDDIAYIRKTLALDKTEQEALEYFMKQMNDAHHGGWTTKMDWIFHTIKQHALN
PI3 Kinase α, sequence (P27986 whole entry partner): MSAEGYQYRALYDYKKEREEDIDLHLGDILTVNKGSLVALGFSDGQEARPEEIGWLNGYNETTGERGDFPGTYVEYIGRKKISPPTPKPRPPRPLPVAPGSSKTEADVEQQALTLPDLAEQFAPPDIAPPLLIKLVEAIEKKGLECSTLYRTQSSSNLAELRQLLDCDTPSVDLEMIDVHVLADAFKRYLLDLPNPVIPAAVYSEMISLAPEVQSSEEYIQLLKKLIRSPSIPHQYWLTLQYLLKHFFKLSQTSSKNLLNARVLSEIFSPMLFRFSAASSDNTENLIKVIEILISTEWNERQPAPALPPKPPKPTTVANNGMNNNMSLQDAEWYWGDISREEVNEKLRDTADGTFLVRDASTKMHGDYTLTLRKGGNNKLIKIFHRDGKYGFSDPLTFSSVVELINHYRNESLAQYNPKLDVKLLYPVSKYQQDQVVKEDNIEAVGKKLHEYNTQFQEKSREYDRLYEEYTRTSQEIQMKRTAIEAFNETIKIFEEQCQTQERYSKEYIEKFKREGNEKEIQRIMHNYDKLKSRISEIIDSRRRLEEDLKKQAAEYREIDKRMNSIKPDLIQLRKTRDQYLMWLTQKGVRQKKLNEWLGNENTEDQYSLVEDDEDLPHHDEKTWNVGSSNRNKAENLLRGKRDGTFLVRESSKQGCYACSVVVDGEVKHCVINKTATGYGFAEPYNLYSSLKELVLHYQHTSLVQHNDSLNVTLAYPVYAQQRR

PI3 Kinase γ, sequence (P48736 whole entry): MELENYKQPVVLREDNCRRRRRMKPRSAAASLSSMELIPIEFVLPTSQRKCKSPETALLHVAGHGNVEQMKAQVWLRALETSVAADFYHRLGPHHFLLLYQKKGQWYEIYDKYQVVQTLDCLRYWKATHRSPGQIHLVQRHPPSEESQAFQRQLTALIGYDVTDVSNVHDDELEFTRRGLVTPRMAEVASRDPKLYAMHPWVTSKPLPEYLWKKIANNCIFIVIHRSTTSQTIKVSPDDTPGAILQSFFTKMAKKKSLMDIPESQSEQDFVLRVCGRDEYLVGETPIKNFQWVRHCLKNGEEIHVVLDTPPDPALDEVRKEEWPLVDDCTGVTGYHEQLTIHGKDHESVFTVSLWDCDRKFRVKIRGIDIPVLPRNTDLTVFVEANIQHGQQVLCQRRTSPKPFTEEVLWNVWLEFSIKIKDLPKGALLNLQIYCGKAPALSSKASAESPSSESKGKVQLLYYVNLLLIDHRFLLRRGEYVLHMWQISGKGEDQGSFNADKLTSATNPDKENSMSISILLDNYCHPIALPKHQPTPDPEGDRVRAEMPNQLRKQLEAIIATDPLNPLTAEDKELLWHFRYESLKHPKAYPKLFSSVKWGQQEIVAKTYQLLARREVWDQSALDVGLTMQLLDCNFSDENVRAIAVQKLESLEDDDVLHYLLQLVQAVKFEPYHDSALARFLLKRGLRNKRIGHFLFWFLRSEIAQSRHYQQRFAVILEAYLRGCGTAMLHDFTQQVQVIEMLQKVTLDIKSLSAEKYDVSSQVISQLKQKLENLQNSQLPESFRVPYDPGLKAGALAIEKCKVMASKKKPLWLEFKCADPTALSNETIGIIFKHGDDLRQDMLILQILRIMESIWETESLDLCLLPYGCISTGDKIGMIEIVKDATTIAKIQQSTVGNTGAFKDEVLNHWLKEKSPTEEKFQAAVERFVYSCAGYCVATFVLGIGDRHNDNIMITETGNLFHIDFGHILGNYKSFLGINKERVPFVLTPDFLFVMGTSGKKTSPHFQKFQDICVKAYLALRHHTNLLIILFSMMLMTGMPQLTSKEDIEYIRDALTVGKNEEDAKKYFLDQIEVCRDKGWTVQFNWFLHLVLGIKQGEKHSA

Row | Structure (SMILES) | IC50 (PI3 Kinase γ) [nM] | IC50 (PI3 Kinase α) [nM]
1 | O=C(c1ccc(Cn2nnc3c(N4CCOCC4)nc(-c4cccc(O)c4)nc32)cc1)N1CCCCC1 [Example 227, 3-{7-morpholin-4-yl-3-[4-(piperidin-1-ylcarbonyl)benzyl]-3H-[1,2,3]triazolo[4,5-d]pyrimidin-5-yl}phenol] | 950 | 1130
2 | CC(C)n1nnc2c(N3CCOCC3)nc(-c3ccc(NC(=O)Nc4ccc(CO)cc4)cc3)nc21 [Example 84, 1-(4-Hydroxymethyl-phenyl)-3-[4-(3-isopropyl-7-morpholin-4-yl-3H-[1,2,3]triazolo[4,5-d]pyrimidin-5-yl)-phenyl]-urea] | 34.5 | 3
3 | Oc1cncc(-c2nc(N3CCOCC3)c3nnn(C4CCN(Cc5ccco5)CC4)c3n2)c1 [Example 13, 5-{3-[1-(2-furylmethyl)piperidin-4-yl]-7-morpholin-4-yl-3H-[1,2,3]triazolo[4,5-d]pyrimidin-5-yl}pyridin-3-ol] | 111 | 31
4 | CCn1nnc2c(N3CCOCC3)nc(-c3ccc(N)c(OC)c3)nc21 [Example 175, 4-(3-ethyl-7-morpholin-4-yl-3H-[1,2,3]triazolo[4,5-d]pyrimidin-5-yl)-2-methoxyaniline] | 9110 | 1410
5 | Oc1cccc(-c2nc(N3CCOCC3)c3nnn(CCN4CCN(Cc5cccc(F)c5)CC4)c3n2)c1 [Example 109, 3-(3-{2-[4-(3-fluorobenzyl)piperazin-1-yl]ethyl}-7-morpholin-4-yl-3H-[1,2,3]triazolo[4,5-d]pyrimidin-5-yl)phenol] | 900 | 242
6 | O=C(Cn1nnc2c(N3CCOCC3)nc(-c3cccc(CO)c3)nc21)Nc1cccnc1 [Example 235, 2-{5-[3-(hydroxymethyl)phenyl]-7-morpholin-4-yl-3H-[1,2,3]triazolo[4,5-d]pyrimidin-3-yl}-N-pyridin-3-ylacetamide] | 2230 | 637
7 | CC(C)(C)OC(=O)N1CC(n2nnc3c(N4CCOCC4)nc(-c4ccc(NC(=O)Nc5cccnc5)cc4)nc32)C1 [Example 130, tert-butyl 3-(7-morpholin-4-yl-5-{4-[(pyridin-3-ylcarbamoyl)amino]phenyl}-3H-[1,2,3]triazolo[4,5-d]pyrimidin-3-yl)azetidine-1-carboxylate] | 165 | 34
8 | O=C(Nc1ccc(Cn2nnc3c(N4CCOCC4)nc(-c4cccc(O)c4)nc32)cc1)c1ccc(Cl)cc1 [Example 197, 4-Chloro-N-(4-{[5-(3-hydroxyphenyl)-7-morpholin-4-yl-3H-[1,2,3]triazolo[4,5-d]pyrimidin-3-yl]methyl}phenyl)benzamide] | 220 | 66
9 | Oc1cccc(-c2nc(N3CCOCC3)c3nnn(CCN4CCNCC4)c3n2)c1 [Example 98, 3-[7-morpholin-4-yl-3-(2-piperazin-1-ylethyl)-3H-[1,2,3]triazolo[4,5-d]pyrimidin-5-yl]phenol] | 595 | 54
10 | CCn1nnc2c(N3CCOC[C@@H]3C)nc(-c3ccc(NC(=O)Nc4cccnc4)cc3)nc21 [Example 72, (S)-1-(4-(3-ethyl-7-(3-methylmorpholino)-3H-[1,2,3]triazolo[4,5-d]pyrimidin-5-yl)phenyl)-3-(pyridin-3-yl)urea] | 88.5 | 8
11 | CCn1nnc2c(N3CCOC[C@@H]3C)nc(-c3ccc(NC(=O)Nc4ccc(CCO)cc4)cc3)nc21 [Example 68, (S)-1-(4-(3-ethyl-7-(3-methylmorpholino)-3H-[1,2,3]triazolo[4,5-d]pyrimidin-5-yl)phenyl)-3-(4-(2-hydroxyethyl)phenyl)urea] | 70.3 | 9
12 | O=C(NCCCN1CCCC1)c1ccc(Cn2nnc3c(N4CCOCC4)nc(-c4cccc(O)c4)nc32)cc1 [Example 211, 4-{[5-(3-hydroxyphenyl)-7-morpholin-4-yl-3H-[1,2,3]triazolo[4,5-d]pyrimidin-3-yl]methyl}-N-(3-pyrrolidin-1-ylpropyl)benzamide] | 2730 | 289
13 | CC(C)n1nnc2c(N3CCOCC3)nc(-c3ccc(NC(=O)Nc4cc[nH]c4)cc3)nc21 [Example 95, 1-[4-(3-isopropyl-7-morpholin-4-yl-3H-[1,2,3]triazolo[4,5-d]pyrimidin-5-yl)-phenyl]-3-(1H-pyrrol-3-yl)-urea] | 91 | 33.7
14 | OCc1cccc(-c2nc(N3CCOCC3)c3nnn(CCCN4CCCC4)c3n2)c1 [Example 10, {3-[7-morpholin-4-yl-3-(3-pyrrolidin-1-ylpropyl)-3H-[1,2,3]triazolo[4,5-d]pyrimidin-5-yl]phenyl}methanol] | 154 | 132
15 | CCn1nnc2c(N3CCOCC3)nc(-c3ccc(NC(=O)Nc4nccs4)cc3)nc21 [Example 37, 1-[4-(3-ethyl-7-morpholin-4-yl-3H-[1,2,3]triazolo[4,5-d]pyrimidin-5-yl)phenyl]-3-(1,3-thiazol-2-yl)urea] | 156 | 73.5
16 | CC(=O)NCCn1nnc2c(N3CCOCC3)nc(-c3cccc(O)c3)nc21 [Example 7, N-{2-[5-(3-hydroxyphenyl)-7-morpholin-4-yl-3H-[1,2,3]triazolo[4,5-d]pyrimidin-3-yl]ethyl}acetamide] | 406 | 171
17 | O=C(Nc1ccc(-c2nc(N3CCOCC3)c3nnn(CC(F)(F)F)c3n2)cc1)Nc1cncnc1 [Example 136, 1-{4-[7-morpholin-4-yl-3-(2,2,2-trifluoroethyl)-3H-[1,2,3]triazolo[4,5-d]pyrimidin-5-yl]phenyl}-3-pyrimidin-5-ylurea] | 88 | 38
18 | Oc1cncc(-c2nc(N3CCOCC3)c3nnn(C4CCN(Cc5ccc(Cl)nc5)CC4)c3n2)c1 [Example 20, 5-(3-{1-[(6-chloropyridin-3-yl)methyl]piperidin-4-yl}-7-morpholin-4-yl-3H-[1,2,3]triazolo[4,5-d]pyrimidin-5-yl)pyridin-3-ol] | 454 | 541
19 | Cn1cccc1CN1CCC(n2nnc3c(N4CCOCC4)nc(-c4cncc(O)c4)nc32)CC1 [Example 19, 5-(3-{1-[(1-methyl-1H-pyrrol-2-yl)methyl]piperidin-4-yl}-7-morpholin-4-yl-3H-[1,2,3]triazolo[4,5-d]pyrimidin-5-yl)pyridin-3-ol] | 277 | 83
20 | CCn1nnc2c(N3CCOCC3)nc(-c3ccc(NC(=O)Nc4ccc(C(=O)N5CCC(N6CCCCC6)CC5)cc4)cc3)nc21 [Example 50, 1-[4-(1,4′-bipiperidin-1′-ylcarbonyl)phenyl]-3-[4-(3-ethyl-7-morpholin-4-yl-3H-[1,2,3]triazolo[4,5-d]pyrimidin-5-yl)phenyl]urea] | 18 | 1.8
21 | O=C(Nc1ccccc1)Nc1ccc(-c2nc(N3CCOCC3)c3nnn(CC4CN(C(=O)c5ccccc5)C4)c3n2)cc1 [Example 190, 1-(4-{3-[(1-benzoylazetidin-3-yl)methyl]-7-morpholin-4-yl-3H-[1,2,3]triazolo[4,5-d]pyrimidin-5-yl}phenyl)-3-phenylurea] | 346 | 19
22 | CN1CCC(n2nnc3c(N4CCOCC4)nc(-c4ccc(NC(=O)Nc5cccnc5)cc4)nc32)CC1 [Example 164, 1-{4-[3-(1-methylpiperidin-4-yl)-7-morpholin-4-yl-3H-[1,2,3]triazolo[4,5-d]pyrimidin-5-yl]phenyl}-3-pyridin-3-ylurea] | 147 | 22
